ChEMBL document CHEMBL4732135, “Structural and mechanistic insights into the inhibition of amyloid-β aggregation by Aβ fragment derived synthetic peptides” (Eur J Med Chem, 2021)
Calls of active or inactive are those of the source. The calls are words filed in the database; no cut-off is given here. Square brackets hold non-standard residues; d marks the D form. Peptide text beside a SMILES is read from it. ξ: configuration not given here. Oic(3aξ,7aξ) = O=C(O)[C@@H]1CC2CCCCC2N1; Phe(4-F) = N[C@@H](Cc1ccc(F)cc1)C(=O)O

What was measured:
PC-12 [1] = test: Neuroprotective activity against amyloid beta 42-induced toxicity in rat PC-12 cells assessed as cell viability at 4 uM measured after 6 hrs by MTT assay (reference value: 74.05%); assay type: functional; settings: read-out: Activity
PC-12 [2] = test: Neuroprotective activity against amyloid beta 42-induced toxicity in rat PC-12 cells assessed as cell viability at 1 uM measured after 6 hrs by MTT assay (reference value: 73.8%); assay type: functional; settings: read-out: Activity
[3] = molecular target: Amyloid-beta precursor protein (Homo sapiens) (UniProt P05067); test: Inhibition of amyloid beta (1 to 42) (unknown origin) assessed as reduction in peptide aggregation at 2 uM measured after 24 hrs by thioflavin-T fluorescence assay relative to control
[4] = Stability of compound in serum (unknown origin) at 5 uM measured up to 12 hrs by HPLC analysis; assay type: ADME, cell-free; settings: read-out: Stabilty
[5] = molecular target: Amyloid-beta precursor protein (Homo sapiens) (UniProt P05067); test: Inhibition of amyloid beta (1 to 42) (unknown origin) aggregation at 2 uM measured after 24 hrs by ANS dye based fluorescence assay
PC-12 [6] = test: Neuroprotective activity against amyloid beta 42-induced toxicity in rat PC-12 cells assessed as cell viability at 2 uM measured after 6 hrs by MTT assay (reference value: 74.05%); assay type: functional; settings: read-out: Activity
[7] = molecular target: Amyloid-beta precursor protein (Homo sapiens) (UniProt P05067); test: Inhibition of amyloid beta (1 to 42) (unknown origin) assessed as reduction in peptide aggregation at 0.5 uM measured after 24 hrs by thioflavin-T fluorescence assay relative to control
Cortical neurone [8] = test: Neuroprotective activity against amyloid beta 42-induced toxicity in rat primary cortical neurons at 0.1 uM; assay type: functional, cell-based
PC-12 [9] = test: Neuroprotective activity against amyloid beta 42-induced toxicity in rat PC-12 cells assessed as cell viability at 10 uM measured after 6 hrs by MTT assay (reference value: 74.05%); assay type: functional; settings: read-out: Activity
[10] = molecular target: Amyloid-beta precursor protein (Homo sapiens) (UniProt P05067); test: Binding affinity to amyloid beta (1 to 42) (unknown origin) assessed as absence of fibrillar assembly at 10 uM measured after 24 hrs by HR-TEM analysis
[11] = molecular target: Amyloid-beta precursor protein (Homo sapiens) (UniProt P05067); test: Binding affinity to amyloid beta (1 to 42) (unknown origin) assessed as absence of fibrillar assembly at 10 uM measured after 24 hrs by STEM analysis
[12] = molecular target: Amyloid-beta precursor protein (Homo sapiens) (UniProt P05067); test: Inhibition of amyloid beta (1 to 42) (unknown origin) assessed as reduction in peptide aggregation at 10 uM measured after 24 hrs by thioflavin-T fluorescence assay relative to control
[13] = molecular target: Amyloid-beta precursor protein (Homo sapiens) (UniProt P05067); test: Inhibition of amyloid beta (1 to 42) (unknown origin) assessed as reduction in peptide aggregation at 0.5 to 2 uM measured at 24 hrs interval for […] by thioflavin-T fluorescence assay; settings: dose 0.5-2 µM
Cortical neurone [14] = test: Cytotoxicity against rat primary cortical neuron assessed as reduction in cell viability at 20 uM measured after 6 hrs by MTT assay; assay type: cell-based
PC-12 [15] = test: Cytotoxicity against rat PC-12 cells assessed as reduction in cell viability at 20 uM measured after 6 hrs by MTT assay; assay type: cell-based; settings: pc-12, 6 h
[16] = molecular target: Amyloid-beta precursor protein (Homo sapiens) (UniProt P05067); test: Disaggregation of preformed amyloid beta (1 to 42) (unknown origin) aggregation at 2 uM measured at 24 hrs interval for 120 hrs by thioflavin-T fluorescence assay relative to control
[17] = molecular target: Amyloid-beta precursor protein (Homo sapiens) (UniProt P05067); test: Disaggregation of preformed amyloid beta (1 to 42) (unknown origin) aggregation at 2 uM by thioflavin-T fluorescence assay; settings: time 24-120 hrs, TDE = time-dependent effect
[18] = Stability of compound in serum (unknown origin) assessed as peptide cleavage at 5 uM measured after 24 hrs by MS analysis; assay type: ADME, cell-free
[19] = molecular target: Amyloid-beta precursor protein (Homo sapiens) (UniProt P05067); test: Inhibition of amyloid beta (1 to 42) (unknown origin) assessed as reduction in peptide aggregation at 4 uM measured after 24 hrs by thioflavin-T fluorescence assay relative to control
[20] = molecular target: Amyloid-beta precursor protein (Homo sapiens) (UniProt P05067); test: Disaggregation of preformed amyloid beta (1 to 42) (unknown origin) aggregation at 0.5 uM measured at 24 hrs interval for 120 hrs by thioflavin-T fluorescence assay relative to control
[21] = Effective permeability of compound in pH 8 PBS buffer by PAMPA-BBB assay; assay type: ADME
[22] = molecular target: Amyloid-beta precursor protein (Homo sapiens) (UniProt P05067); test: Inhibition of amyloid beta (1 to 42) (unknown origin) aggregation assessed as protein with random coil conformation at 10 uM measured after 24 hrs by circular dichroism analysis (reference value: 5%); design: scale not given: the % may be the effect or the level left
[23] = molecular target: Amyloid-beta precursor protein (Homo sapiens) (UniProt P05067); test: Inhibition of amyloid beta (1 to 42) (unknown origin) aggregation assessed as relative fluorescence unit at 2 uM measured after 24 hrs by thioflavin-T fluorescence assay (reference value: 100%)
[24] = molecular target: Amyloid-beta precursor protein (Homo sapiens) (UniProt P05067); test: Inhibition of amyloid beta (1 to 42) (unknown origin) aggregation assessed as relative fluorescence unit at 10 uM measured after 24 hrs by thioflavin-T fluorescence assay (reference value: 100%)
[25] = molecular target: Amyloid-beta precursor protein (Homo sapiens) (UniProt P05067); test: Disaggregation of preformed amyloid beta (1 to 42) (unknown origin) aggregation at 2 uM measured after 24 hrs by ANS dye based fluorescence assay
[26] = molecular target: Amyloid-beta precursor protein (Homo sapiens) (UniProt P05067); test: Inhibition of amyloid beta (1 to 42) (unknown origin) aggregation at 2 uM measured after 24 hrs in presence of giant unilamellar vesicles by ANS dye based fluorescence assay
[27] = molecular target: Amyloid-beta precursor protein (Homo sapiens) (UniProt P05067); test: Disaggregation of preformed amyloid beta (1 to 42) (unknown origin) aggregation at 1 uM measured at 24 hrs interval for 120 hrs by thioflavin-T fluorescence assay relative to control
[28] = molecular target: Amyloid-beta precursor protein (Homo sapiens) (UniProt P05067); test: Binding affinity to amyloid beta (1 to 42) (unknown origin) assessed as amyloid beta (2 to 42)-adduct formation at 10 uM measured after 24 hrs by ESI-HRMS analysis
[29] = molecular target: Amyloid-beta precursor protein (Homo sapiens) (UniProt P05067); test: Inhibition of amyloid beta (1 to 42) (unknown origin) aggregation measured after 24 hrs by tyrosine fluorescence assay
[30] = molecular target: Amyloid-beta precursor protein (Homo sapiens) (UniProt P05067); test: Binding affinity to amyloid beta (1 to 42) (unknown origin) assessed as amyloid beta (25 to 42)-adduct formation at 10 uM measured after 24 hrs by ESI-HRMS analysis
[31] = molecular target: Amyloid-beta precursor protein (Homo sapiens) (UniProt P05067); test: Inhibition of amyloid beta (1 to 42) (unknown origin) aggregation assessed as protein with beta sheet conformation at 10 uM measured after 24 hrs by circular dichroism analysis (reference value: 66.4%); design: scale not given: the % may be the effect or the level left
[32] = molecular target: Amyloid-beta precursor protein (Homo sapiens) (UniProt P05067); test: Inhibition of amyloid beta (1 to 42) (unknown origin) assessed as reduction in peptide aggregation at 1 uM measured after 24 hrs by thioflavin-T fluorescence assay relative to control
[33] = molecular target: Amyloid-beta precursor protein (Homo sapiens) (UniProt P05067); test: Inhibition of amyloid beta (1 to 42) (unknown origin) aggregation assessed as relative fluorescence unit at 4 uM measured after 24 hrs by thioflavin-T fluorescence assay (reference value: 100%)
[34] = molecular target: Amyloid-beta precursor protein (Homo sapiens) (UniProt P05067); test: Inhibition of amyloid beta (1 to 42) (unknown origin) assessed as reduction in peptide aggregation at 0.1 uM measured after 24 hrs by thioflavin-T fluorescence assay relative to control
PC-12 [35] = test: Neuroprotective activity against amyloid beta 42-induced toxicity in rat PC-12 cells assessed as cell viability at 0.5 uM measured after 6 hrs by MTT assay (reference value: 73.8%); assay type: functional; settings: read-out: Activity
PC-12 [36] = test: Neuroprotective activity against amyloid beta 42-induced toxicity in rat PC-12 cells assessed as cell viability at 0.1 uM measured after 6 hrs by MTT assay (reference value: 73.8%); assay type: functional; settings: read-out: Activity
[37] = molecular target: Amyloid-beta precursor protein (Homo sapiens) (UniProt P05067); test: Binding affinity to amyloid beta (1 to 42) (unknown origin) at 10 uM measured after 24 hrs by ESI-HRMS analysis
[38] = molecular target: Amyloid-beta precursor protein (Homo sapiens) (UniProt P05067); test: Binding affinity to amyloid beta (1 to 42) (unknown origin) assessed as amyloid beta (27 to 42)-adduct formation at 10 uM measured after 24 hrs by ESI-HRMS analysis

Amyloid-beta precursor protein (Homo sapiens), sequence (P05067 whole entry): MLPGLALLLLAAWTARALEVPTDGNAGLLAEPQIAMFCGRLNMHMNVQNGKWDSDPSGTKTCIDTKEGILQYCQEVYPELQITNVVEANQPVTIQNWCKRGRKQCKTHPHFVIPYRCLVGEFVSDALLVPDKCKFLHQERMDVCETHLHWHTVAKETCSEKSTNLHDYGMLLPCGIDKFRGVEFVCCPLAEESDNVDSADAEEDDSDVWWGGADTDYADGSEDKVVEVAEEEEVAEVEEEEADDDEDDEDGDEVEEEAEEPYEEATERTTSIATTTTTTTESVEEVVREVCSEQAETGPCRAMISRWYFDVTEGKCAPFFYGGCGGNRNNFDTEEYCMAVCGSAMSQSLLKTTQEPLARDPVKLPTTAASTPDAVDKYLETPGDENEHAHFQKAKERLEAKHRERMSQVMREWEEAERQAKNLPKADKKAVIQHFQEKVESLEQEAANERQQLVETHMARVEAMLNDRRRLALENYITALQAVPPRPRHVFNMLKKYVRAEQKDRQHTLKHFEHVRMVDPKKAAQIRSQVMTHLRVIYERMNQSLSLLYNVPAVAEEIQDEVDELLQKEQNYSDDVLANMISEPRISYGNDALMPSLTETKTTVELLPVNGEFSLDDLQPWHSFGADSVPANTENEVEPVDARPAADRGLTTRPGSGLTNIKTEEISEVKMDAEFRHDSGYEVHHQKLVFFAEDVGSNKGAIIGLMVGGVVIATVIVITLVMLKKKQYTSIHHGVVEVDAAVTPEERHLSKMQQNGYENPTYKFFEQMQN

inhibition [3] | remaining at 12 h, 5 µM [4] | inhibition [5] | inhibition [7] | Activity [10] | Activity [11] | inhibition [12] | inhibition [13] | Activity [17] | Stabilty [18] | inhibition [19] | Peff [21] | Activity [22] | SMILES | viability at 4 µM (PC-12 [1]) | viability at 1 µM (PC-12 [2]) | viability at 2 µM (PC-12 [6]) | Activity (Cortical neurone [8]) | viability at 10 µM (PC-12 [9]) | Activity (Cortical neurone [14]) | Activity (PC-12 [15]) | other results
100% | 90% | Active | 81% | Active | Active | 91.7% | Active | Tde | Unstable | 97.5% | Permeable | 97.6% | CC[C@H](C)[C@H](NC(=O)[C@@H](NC(=O)[C@@H](N)Cc1ccc(F)cc1)C(C)C)C(=O)N[C@@H](C)C(=O)O (H-[Phe(4-F)]VIA-OH) | 100% | 97.2% | 100% | Active | 100% | Non-Toxic | Non-Toxic | inhibition [16]: 61%; inhibition [20]: 32.1%; RFU [23]: 53.1%; RFU [24]: 57.2%; Activity [25]: Active; inhibition [26]: Active; inhibition [27]: 42.5%; Activity [28]: Active; inhibition [29]: Active; Activity [30]: Active; Activity [31]: 13.6%; inhibition [32]: 83.1%; RFU [33]: 54.5%; inhibition [34]: 79.9%; viability at 0.5 µM (PC-12 [35]): 83.1%; viability at 0.1 µM (PC-12 [36]): 79.3%
100% | 90% | Active | 68% | Active | Active | 100% | Active | Tde | Unstable | 100% | Permeable | 60% | CC[C@H](C)[C@H](NC(=O)[C@@H]1CC2CCCCC2N1C(=O)[C@@H](N)C(C)C)C(=O)N[C@@H](C)C(=O)O (some centres undefined) (H-V[Oic(3aξ,7aξ)]IA-OH) | 100% | 92.3% | 100% | Active | 100% | Non-Toxic | Non-Toxic | Activity [37]: Active; RFU [23]: 53%; RFU [24]: 53.2%; Activity [25]: Active; inhibition [26]: Active; inhibition [29]: Active; Activity [31]: 14.2%; Activity [38]: Active; inhibition [32]: 74.8%; RFU [33]: 53.3%; inhibition [34]: 61.2%; viability at 0.5 µM (PC-12 [35]): 80.5%; viability at 0.1 µM (PC-12 [36]): 84.9%
